Laboratory results reported in PubChem BioAssay AID1996.
Values after ≈ are worked out from the molar mass of the structure shown.

Conditions: buffer; pH 7.4; 200.0 µM

| SMILES | solubility kinetic |
| --- | --- |
| CC(=O)/C(=C(/O)c1ccccc1)c1nc2ccccc2[nH]1 | 1.4 µg/mL (≈ 5.03 µM) |
| N#CC1(Nc2cccc(Br)c2)C(=O)Nc2ccccc21 (configuration not stated) | > 49.2 µg/mL |
| Cc1ccc(-c2nc3ccccc3c(=O)n2-c2cccc(C)n2)cc1 | > 49.1 µg/mL |
| O=C(Nc1nnc2n1CCS2)c1ccco1 | > 35.4 µg/mL |
| Clc1ccc(N=c2ssnc2Cl)nc1 | 1 µg/mL (≈ 3.79 µM) |
| O=C(CSc1ccc2ccccc2n1)c1ccccc1 | 1.5 µg/mL (≈ 5.37 µM) |
| Cc1c(C(=O)N2CCNCC2)oc2ccccc12.Cl | 40.9 µg/mL |
| Cc1nc2ccccn2c(=O)c1NC(=O)c1cccs1 | > 42.8 µg/mL |
| Cc1nc(N2CCN(c3ccccc3)CC2)[nH]c(=O)c1C | 39.5 µg/mL (≈ 139 µM) |
| Cc1ccccc1Nc1nc(N)nc(CSc2n[nH]c(N)n2)n1 | > 49.4 µg/mL |
| CN1CCC(NC(=O)NC2CCCCC2)CC1 | > 35.9 µg/mL |
| Cc1cc(C)cc(N2C(=O)CCN(Cc3ccccc3)C2=O)c1 | 38 µg/mL (≈ 123 µM) |
| O=C(c1c(F)cccc1F)N1CCC(O)(c2ccc(F)cc2)CC1 | 49 µg/mL (≈ 146 µM) |
| Cc1ccc(S(=O)(=O)N2CCC3(CC2)OCCO3)c(C)c1 | > 46.7 µg/mL |
| CC1=CC(=C(C#N)C#N)C=C(C)N1CCN1CCNCC1 | > 42.5 µg/mL |
| COC(=O)c1cc(Nc2cc(C)c3ccc(O)cc3n2)cc(C(=O)OC)c1 | < 0.4 µg/mL |
| Cc1nsc(N)c1C(=O)O | > 23.7 µg/mL |
| COc1cc([N+](=O)[O-])ccc1NC(=S)NC(=O)CC(C)(C)C | 0.3 µg/mL (≈ 0.922 µM) |
| Cc1ccccc1CN1CCc2cc([N+](=O)[O-])ccc21 | 1.9 µg/mL (≈ 7.08 µM) |
| CSc1ncc(CN2CCCC(C(=O)c3cccc(Cl)c3)C2)cn1 (configuration not stated) | 29 µg/mL (≈ 80.1 µM) |

| SMILES | solubility kinetic |
| --- | --- |
| Cc1nc(N2CCOCC2)sc1C=O | > 31.8 µg/mL |
| C=CCC1c2cccc(C(=O)O)c2C(=O)N1c1cccc(OC)c1 (configuration not stated) | > 48.5 µg/mL |
| Cc1cc(=O)[nH]c(SCc2ccccc2)n1 | > 34.8 µg/mL |
| CC(C)c1csc2nc3n(c(=O)c12)CCCCC3 | 32.9 µg/mL (≈ 125 µM) |
| CCOc1ccc(-c2cn3ccccc3n2)cc1 | 18.1 µg/mL (≈ 76 µM) |
| CC(C)Nc1nc(-c2cccnc2)nc(-c2ccccc2)c1C#N | < 0.1 µg/mL |
| Cc1ccc(CSCC(=O)NCc2ccc(F)cc2)cc1 | 23.2 µg/mL (≈ 76.5 µM) |
| O=C(COC(=O)c1cnccn1)c1cccc([N+](=O)[O-])c1 | > 43.1 µg/mL |
| CN(C)c1ccc(CN2CCC(C(N)=O)CC2)cc1.O=C(O)C(=O)O | > 52.7 µg/mL |
| COc1ccccc1CNC(=O)Cc1c[nH]c2ccccc12 | > 44.2 µg/mL |
| COS(=O)(=O)[O-].Cn1c(Cc2ccccc2)[n+](C)c2ccccc21 | 50.7 µg/mL |
| COC(=O)CC(NC(=O)c1cccs1)c1ccc(OC)c(OC)c1 (configuration not stated) | > 52.4 µg/mL |
| O=C(NCCNCc1cccs1)c1ccccc1F | 37.6 µg/mL (≈ 135 µM) |
| COCCn1c(N)c(C(=S)NC(=O)c2cccs2)c(=O)[nH]c1=O | 34.6 µg/mL (≈ 97.6 µM) |
| Cc1ccc(N2C(=O)CCC2=O)c(C)c1 | 28 µg/mL (≈ 138 µM) |
| Cc1ccc(C2(c3noc(CN(C)Cc4cccnc4)n3)CCCC2)cc1 | 42.1 µg/mL (≈ 116 µM) |
| O=C(Nc1cccnc1)c1ccc(CSc2ccccc2)cc1 | < 0.3 µg/mL |
| Nc1cccnc1Sc1ccccc1 | 28 µg/mL (≈ 138 µM) |
| Cc1cccc(-c2noc(-c3ccccc3C(=O)NCc3ccco3)n2)c1 | 8.9 µg/mL (≈ 24.8 µM) |
| CC(=O)NC(CC(=O)OCC(=O)c1cc(C)ccc1C)c1ccccc1 (configuration not stated) | > 53 µg/mL |

| SMILES | solubility kinetic |
| --- | --- |
| Cc1c(C(=O)N2CCC[C@H]2C(N)=O)oc2c(F)cccc12 | 38.1 µg/mL (≈ 131 µM) |
| COc1ccc(CCNC(=O)c2cc3c(C)nccc3[nH]c2=O)cc1OC | 17.1 µg/mL (≈ 46.5 µM) |
| N#C/C(=C(/O)C(Cl)(Cl)Cl)c1nc2ccccc2[nH]1 | 12.1 µg/mL (≈ 40 µM) |
| CC1(C)Cc2nc3[nH]c(=S)[nH]c(=O)c3cc2CO1 | > 39.5 µg/mL |
| Cc1ccc(C)c(NC(=O)c2cc([N+](=O)[O-])cc([N+](=O)[O-])c2)c1 | 0.6 µg/mL (≈ 1.9 µM) |
| C/C(N)=C(/C#N)C(=O)COC(=O)c1cc2c(s1)CCC(C)C2 (configuration not stated) | 4.7 µg/mL (≈ 14.8 µM) |
| O=C(Cc1ccccc1F)OCN1C(=O)c2ccccc2C1=O | 47 µg/mL (≈ 150 µM) |
| CNC(=S)N1CCN(c2nc3ccccc3s2)CC1 | 4 µg/mL (≈ 13.7 µM) |
| Cc1ccc(OCC(=O)Oc2ccccc2[N+](=O)[O-])cc1 | 17.4 µg/mL (≈ 60.6 µM) |
| CC(=O)c1cc(C#N)c(SCc2ccc([N+](=O)[O-])cc2)nc1C | < 0.2 µg/mL |
| COc1ccc(C)cc1NCc1ccc([N+](=O)[O-])cc1 | 3.1 µg/mL (≈ 11.4 µM) |
| CCc1cc2c(CN(C)Cc3ccccc3F)cc(=O)oc2cc1O | 9.5 µg/mL (≈ 27.8 µM) |
| Cc1c(N=Cc2cc3c(cc2[N+](=O)[O-])OCO3)cccc1[N+](=O)[O-] | 6.5 µg/mL (≈ 19.7 µM) |
| CCOC(=O)c1c(O)c(Cl)c(C)[nH]c1=O | > 34.7 µg/mL |
| CC(C)(C)C(=O)CSc1ncccn1 | 24.3 µg/mL (≈ 116 µM) |
| Cc1ccc2[nH]c(O)c(N=O)c2c1 | > 26.4 µg/mL |
| COC(=O)c1c(C)[nH]c(C(=O)CN2C(=O)C3CC=CCC3C2=O)c1C (configuration not stated) | > 51.7 µg/mL |
| CCC(C)NC(=O)c1ccc2nc(Cc3ccc(OC)cc3)oc2c1 (configuration not stated) | 4.7 µg/mL (≈ 13.9 µM) |
| C=CCn1cnc2scc(-c3ccc(OC)cc3)c2c1=O | 39 µg/mL (≈ 131 µM) |
| CC(=O)c1cc(C#N)c(N2CCN(c3ccccc3)CC2)nc1C | 0.2 µg/mL (≈ 0.624 µM) |

Now from value to compound:

| solubility kinetic | SMILES |
| --- | --- |
| 27.7 µg/mL (≈ 91.9 µM) | O=C(COC(=O)/C=C/c1cccc(F)c1)Nc1ncccn1 |
| 0.9 µg/mL (≈ 2.15 µM) | Cc1ccc(S(=O)(=O)/N=C2\C=C(Nc3ccc(O)cc3)C(=O)c3ccccc32)cc1 |
| > 45.1 µg/mL | O=C(CSc1ccc(-c2ccncc2)nn1)N1CCCC1 |
| 0.5 µg/mL (≈ 1.57 µM) | COc1cc([N+](=O)[O-])ccc1NC(=O)CSc1ccccn1 |
| > 50.7 µg/mL | O=C(CN1C(=O)c2ccccc2C1=O)NCc1ccc(C(=O)O)cc1 |
| 41.5 µg/mL (≈ 132 µM) | O=C(c1ccc(Cl)cc1)N(c1ccccn1)C1CCCCC1 |
| 39.5 µg/mL (≈ 148 µM) | CNc1nc(N)c([N+](=O)[O-])c(N2CCCCCC2)n1 |
| 46.8 µg/mL (≈ 124 µM) | O=C(c1ccccc1)N1CCCC(C(=O)N2CCN(c3ccccc3)CC2)C1 (configuration not stated) |
| 3.8 µg/mL (≈ 11.6 µM) | O=C(CSc1nc2ccccc2c(=O)[nH]1)Nc1ccccc1O |
| 43.9 µg/mL (≈ 141 µM) | COc1cccc(CC(=O)Nc2ccccc2N2CCCC2)c1 |
| 44.2 µg/mL (≈ 131 µM) | O=C(NC1CCCC1)C1CCN(S(=O)(=O)c2ccccc2)CC1 |
| 17.1 µg/mL (≈ 39.1 µM) | O=C(CSc1ccc([N+](=O)[O-])cc1)Nc1cccc(S(=O)(=O)N2CCOCC2)c1 |
| > 34.7 µg/mL | CCc1ccc(NC(=O)Nc2ccon2)cc1 |
| > 49.7 µg/mL | CN(C)c1ccc(C(=O)N2CCN(C(=O)C3CCCO3)CC2)cc1 (configuration not stated) |
| 5.8 µg/mL (≈ 20.9 µM) | Cc1cc(NC(=O)COc2ccc([N+](=O)[O-])cc2)no1 |
| 3.4 µg/mL (≈ 9.59 µM) | O=C(NC1CCCC1)C1CCCN(S(=O)(=O)c2ccc(F)cc2)C1 (configuration not stated) |
| 5.6 µg/mL (≈ 16.7 µM) | CC(OC(=O)c1ccc([N+](=O)[O-])cc1)C(=O)NCC1CCCCC1 (configuration not stated) |
| 2.5 µg/mL (≈ 8.16 µM) | NS(=O)(=O)c1ccc(Sc2ccc3c(c2)CCC3)nc1 |
| < 0.3 µg/mL | O=C(c1cccs1)N1CCN=C1SCc1ccccc1F |

| solubility kinetic | SMILES |
| --- | --- |
| > 51.6 µg/mL | O=C(CCl)Nc1ccc(S(=O)(=O)NC2=NCCCCC2)cc1 |
| > 50.5 µg/mL | Cc1cc(NC(=O)CN(C)CC(=O)Nc2ccc(Cl)cc2)no1 |
| > 50.9 µg/mL | O=C1CC2(CCN(C(=O)c3cccc(F)c3)CC2)Oc2ccccc21 |
| 35.1 µg/mL (≈ 127 µM) | CCc1ccc(NC(=S)N2CCCCCCC2)cc1 |
| 1.2 µg/mL (≈ 3.47 µM) | Cc1ccc(NS(=O)(=O)c2ccc3c(c2)n(C)c(=O)n3C)cc1C |
| 30 µg/mL (≈ 111 µM) | O=C(Cc1c(F)cccc1Cl)Nc1nccs1 |
| 40.6 µg/mL (≈ 125 µM) | O=C(NC(=S)NC1CCSC1=O)c1ccc([N+](=O)[O-])cc1 (configuration not stated) |
| > 39.3 µg/mL | Cc1ccc(S(=O)(=O)NCc2cccnc2)cc1 |
| 3.2 µg/mL (≈ 11.7 µM) | Cc1ccc(OCC(=O)Nc2ccccc2F)cc1C |
| > 50 µg/mL | NC(=O)c1ccsc1NC(=O)CSc1nnc2ccccn12 |
| > 70.3 µg/mL | Cc1ccc(C(=O)O)cc1NC(=O)CSc1nnc(-c2ccccc2F)n1C1CCCCC1 |
| 5.2 µg/mL (≈ 12.5 µM) | O=C(CN1C(=O)NC(CCc2ccccc2)C1=O)Nc1cccc(Br)c1 (configuration not stated) |
| > 51.4 µg/mL | COc1ccccc1CC(=O)NCC(c1ccco1)N1CCCCC1 (configuration not stated) |
| > 46.1 µg/mL | CC(=O)c1ccc(NC(=S)N2CCN(CCO)CC2)cc1 |
| > 73.3 µg/mL | Cc1cc(C)n2nc(C(=O)OCC(=O)Nc3ccc(C)c(S(=O)(=O)N4CCOCC4)c3)nc2n1 |
| 2.3 µg/mL (≈ 6.56 µM) | Cc1ccc(NC(=S)N2CCCC(c3nc4ccccc4[nH]3)C2)cc1 (configuration not stated) |
| > 40.5 µg/mL | Cc1nnc(NS(=O)(=O)c2ccc(N)cc2)s1 |
| 2.1 µg/mL (≈ 6.9 µM) | COc1ccc(CC(=O)Nc2nc(C(C)(C)C)cs2)cc1 |
| 50.2 µg/mL (≈ 144 µM) | COc1ccc(NC(=O)CN(C)CC(=O)NC2CCCCC2C)cc1 (configuration not stated) |

| solubility kinetic | SMILES |
| --- | --- |
| 22 µg/mL (≈ 63.8 µM) | COc1ccccc1CC(=O)N1CCN(c2cccc(Cl)c2)CC1 |
| > 51.7 µg/mL | CCN(CC(=O)Nc1ccccc1OC)C(=O)CC1CC2CCC1C2 (configuration not stated) |
| 39 µg/mL (≈ 140 µM) | CC(=O)Nc1ccc(C2C(=O)c3ccccc3C2=O)cc1 |
| 8.9 µg/mL (≈ 28 µM) | CCC1CCC(N2CCN(c3ccc([N+](=O)[O-])cc3)CC2)CC1 (configuration not stated) |
| 1.4 µg/mL (≈ 4.61 µM) | CC(=O)Nc1ccc(NC(=O)Nc2cccc(Cl)c2)cc1 |
| > 55 µg/mL | CC(=O)Nc1ccc(NC(=O)COC(=O)Cn2cnc3ccccc32)cc1 |
| > 41.8 µg/mL | CCOc1ccc(C(=O)NCCN2CCOCC2)cc1 |
| < 0.3 µg/mL | CC(C)c1ccc(NS(=O)(=O)c2cccc3cccnc23)cc1 |
| 20.6 µg/mL (≈ 66.6 µM) | Cc1[nH]c2ccccc2c1/C=C(\C#N)C(=O)NCC1CCCO1 (configuration not stated) |
| > 52 µg/mL | CC(C(=O)Nc1cccc([N+](=O)[O-])c1)N1C(=O)NC2(CCCC2)C1=O (configuration not stated) |
| 1.7 µg/mL (≈ 5.46 µM) | CCC(=O)N/C(=N/c1nc(C)cc(C)n1)Nc1ccc(C)cc1 |
| > 45 µg/mL | COC(=O)CNC(=O)COC(=O)Cc1ccc(Cl)cc1 |
| 2.2 µg/mL (≈ 5.8 µM) | CC(=O)Nc1ccc(NC(=O)c2ccc(OCc3c(C)noc3C)cc2)cc1 |
| > 42.2 µg/mL | CN1CCC(N(C)C(=S)Nc2ccc(F)cc2)CC1 |
| 3 µg/mL (≈ 8.71 µM) | COC(=O)c1ccc(/C=C/C(=O)OCC(=O)Nc2cc(C)on2)cc1 |
| 3.4 µg/mL (≈ 6.91 µM) | COc1ccc(NS(=O)(=O)c2cc(NC(=O)c3ccccn3)ccc2OC)cc1Br |
| > 46.1 µg/mL | O=C(COC(=O)c1ccccc1)Nc1ncc([N+](=O)[O-])s1 |
| > 53.1 µg/mL | CCS(=O)(=O)N1CCN(CC(=O)NC2CCCCC2)CC1.Cl |
| 0.6 µg/mL (≈ 2.13 µM) | Cc1cc(NC(=O)COc2ccc3ccccc3c2)no1 |
